Like-named read-outs stand apart in the source and are kept apart here.
Experiments:
CB1 = CB1 (Rattus norvegicus, UniProt P20272); test: CB1 receptor binding affinity (Ki)
Method: Some disclosed compounds were tested for CB1 and CB2 receptor binding affinity (Tables 1, 2, 3, 4, 5, 6). As used herein “binding affinity” is represented by the Ki value. The Ki value is the affinity constant and describes the affinity of the compound for the receptor. […] A detailed description of the methods used to test “binding affinity” of compounds is given in Makriyannis, et al., US 2007, 0135388 and in Papahatjis, et al. J. Med. Chem. (2007) 4048, the content of each of which is hereby incorporated by reference.

CB2 receptor = CB2 receptor (UniProt P47936); test: CB2 receptor binding affinity (Ki); details: read-out: CB2 receptor Ki
Method: Some disclosed compounds were tested for CB1 and CB2 receptor binding affinity (Tables 1, 2, 3, 4, 5, 6). As used herein “binding affinity” is represented by the Ki value. The Ki value is the affinity constant and describes the affinity of the compound for the receptor. The lower the Ki value, the higher the affinity of the compound for the receptor. A detailed description of the methods used to test “binding affinity” of compounds is given in Makriyannis, et al., US 2007, 0135388 and in Papahatjis, et al. J. Med. Chem. (2007) 4048, the content of each of which is hereby incorporated by reference.

Sequence of CB1 (P20272 whole entry): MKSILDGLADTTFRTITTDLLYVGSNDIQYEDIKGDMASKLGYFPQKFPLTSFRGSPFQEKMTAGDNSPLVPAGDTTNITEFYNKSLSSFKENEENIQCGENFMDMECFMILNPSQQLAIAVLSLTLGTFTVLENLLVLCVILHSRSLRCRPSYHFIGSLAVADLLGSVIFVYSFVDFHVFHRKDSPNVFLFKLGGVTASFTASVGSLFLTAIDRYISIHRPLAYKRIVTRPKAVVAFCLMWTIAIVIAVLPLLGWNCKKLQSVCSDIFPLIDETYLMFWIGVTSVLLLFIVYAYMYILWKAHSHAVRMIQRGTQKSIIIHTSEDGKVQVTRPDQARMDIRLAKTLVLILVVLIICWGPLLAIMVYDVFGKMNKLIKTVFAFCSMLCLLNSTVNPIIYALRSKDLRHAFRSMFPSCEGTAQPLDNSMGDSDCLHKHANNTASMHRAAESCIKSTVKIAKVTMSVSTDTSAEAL

| Compound | Ki (CB1) | Ki (CB2 receptor) | Ki (CB1; read-out: CB1 receptor Ki) |
| --- | --- | --- | --- |
| C=C(C)[C@@H]1CCC(COC(C)=O)=C[C@H]1c1c(O)cc(C(C)(C)CCCCCC)cc1O [Compound 31.2, 2-[(1R,6R)-3-(Acetoxymethyl)-6-(1-methylethenyl)-2-cyclohexen-1-yl]-5-(1,1-dimethylheptyl)resorcinol] | 221 nM | 375 nM |  |
| CCCCCCC1(c2cc(O)c([C@H]3C=C(C)[C@H]4C[C@@H]3C4(C)C)c(O)c2)CCCC1 [Compound 40.4, (+)-2-[(1R,4S,5S)-2,6,6-trimethylbicylco[3.1.1]hept-2-en-4-yl]-5-(1-hexyl-1-cyclopentyl)resorcinol] | 23 nM | 17 nM |  |
| CCCCCc1cc(O)c([C@H]2C=C(C)[C@H]3C[C@@H]2C3(C)C)c(O)c1 [Compound 40.1, (+)-2-[(1R,4S,5S)-2,6,6-trimethylbicyclo[3.1.1]hept-2-en-4-yl]-5-pentyl-resorcinol, reference compound] | 671 nM | 47 nM |  |
| C=C(C)[C@@H]1CC[C@@H](C(N)=O)C[C@H]1c1c(O)cc(C(C)(C)CCCCCC)cc1O [Compound 59.1, (1R,3R,4R)-3-[4-(1′,1′-Dimethylheptyl)-2,6-dihydroxyphenyl]-4-isopropenyl-1-carboxamidocyclohexane] | > 1000 nM | > 1000 nM |  |
| CC1=C[C@H](c2c(O)cc(C3(CCCCCBr)CCC3)cc2O)[C@@H]2C[C@H]1C2(C)C [Compound 40.8, (+)-2-[(1R,4S,5S)-2,6,6-trimethylbicylco[3.1.1]hept-2-en-4-yl]-5-[(5-bromopentyl)cyclobutyl]resorcinol] | 1 nM | 2.1 nM |  |
| C=C(C)[C@@H]1CCC(=O)C[C@H]1c1c(O)cc(C23CC4CC(CC(C4)C2)C3)cc1O [Compound 48.2, (3R,4R)-3-[4-(1-Adamantyl)-2,6-dihydroxyphenyl]-4-isopropenylcyclohexan-1-one] | 694 nM | > 1000 nM |  |
| C=C(C)[C@H]1CCC(COC(C)=O)=C[C@@H]1c1c(O)cc(C2(/C=C\CCCC)CCCC2)cc1O [Compound 3.5, 2-[(1S,6S)-3-(Acetoxymethyl)-6-(1-methylethenyl)-2-cyclohexen-1-yl]-5-[1-(1,2-cis-hexen-1-yl)-cyclopent-1-yl]resorcinol] | 71 nM | 12 nM |  |
| C=C(C)[C@H]1CCC(COC(C)=O)=C[C@@H]1c1c(O)cc(C2(CCCCCC#N)CCC2)cc1O [Compound 33, 2-[(1S,6S)-3-(Acetoxymethyl)-6-(1-methylethenyl)-2-cyclohexen-1-yl]-5-[(5-cyanopentyl)cyclobutyl)resorcinol] | 65 nM | 15 nM |  |
| CC1=C[C@H](c2c(O)cc(C3(CCCCBr)CCC3)cc2O)[C@@H]2C[C@H]1C2(C)C [Compound 40.15, (+)-2-[(1R,4S,5S)-2,6,6-trimethylbicylco[3.1.1]hept-2-en-4-yl]-5-[(5-bromobutyl)cyclobutyl]resorcinol] | 11 nM | 1.9 nM |  |
| C=C(C)[C@H]1CCC(COC(C)=O)=C[C@@H]1c1c(O)cc(C(C)(C)CCCCCC)cc1O [Compound 3.2, 2-[(1S,6S)-3-(Acetoxymethyl)-6-(1-methylethenyl)-2-cyclohexen-1-yl]-5-(1,1-dimethylheptyl)resorcinol] | 69 nM | 62 nM |  |
| C=C(C)[C@@H]1CCC(=O)C[C@H]1c1c(O)cc(C(C)(C)CCCCCC)cc1O [Compound 61.2, (3R,4R)-3-[4-(1′,1′-Dimethylheptyl)-2,6-dihydroxyphenyl]-4-isopropenylcyclohexan-1-one] | > 1000 nM | 37 nM |  |
| C=C(C)[C@H]1CCC(COC(C)=O)=C[C@@H]1c1c(O)cc(C2(CCCCCC)CC2)cc1O [Compound 3.3, 2-[(1S,6S)-3-(Acetoxymethyl)-6-(1-methylethenyl)-2-cyclohexen-1-yl]-5-(1-hexyl-cyclopropyl)resorcinol] | 88 nM | 105 nM |  |
| C=C(CO)[C@@H]1CC[C@@H](CO)C[C@H]1c1c(O)cc(C23CC4CC(CC(C4)C2)C3)cc1O [Compound 54.2, (1R,3R,4R)-3-[4-(1-Adamantyl)-2,6-dihydroxyphenyl]-4-[2′-(3′-hydroxyprop-1′-enyl)]-1-(hydroxymethyl)cyclohexane] | 4140 nM | 185 nM |  |
| C=C(C)[C@@H]1CC[C@@H](O)C[C@H]1c1c(O)cc(C23CC4CC(CC(C4)C2)C3)cc1O [Compound 55, (1R,3R,4R)-3-[4-(1-Adamantyl)-2,6-dihydroxyphenyl]-4-isopropenyl-1-hydroxycyclohexane] | 2400 nM | 343 nM |  |
| C=C(C)[C@H]1CCC(COC(C)=O)=C[C@@H]1c1c(O)cc(C2(CCCCCBr)CCC2)cc1O [Compound 3.8, 2-[(1S,6S)-3-(Acetoxymethyl)-6-(1-methylethenyl)-2-cyclohexen-1-yl]-5-[(5-bromopentyl)cyclobutyl)resorcinol] | 50 nM | 35 nM |  |
| C=C(C)[C@H]1CCC(CO)=C[C@@H]1c1c(O)cc(C23CC4CC(CC(C4)C2)C3)cc1O [Compound 4.9, 2-[(1S,6S)-3-(Hydroxymethyl)-6-(1-methylethenyl)-2-cyclohexen-1-yl]-5-(1-adamantyl)resorcinol] | 449 nM | 49 nM |  |
| CCCC/C=C\C1(c2cc(O)c([C@H]3C=C(C)[C@H]4C[C@@H]3C4(C)C)c(O)c2)CCCC1 [Compound 40.5, (+)-2-[(1R,4S,5S)-2,6,6-trimethylbicylco[3.1.1]hept-2-en-4-yl]-5-[1-(1,2-cis-hexen-1-yl)-cyclopent-1-yl]resorcinol] | 13.4 nM | 6.6 nM |  |
| C=C(C)[C@H]1CCC(COC(C)=O)=C[C@@H]1c1c(O)cc(C(C)(C)CCCCCBr)cc1O [Compound 3.12, 2-[(1S,6S)-3-(Acetoxymethyl)-6-(1-methylethenyl)-2-cyclohexen-1-yl]-5-(7-bromo-2-methylheptan-2-yl)resorcinol] | 29 nM | 27 nM |  |
| C=C(C)[C@@H]1CC[C@@H](CO)C[C@H]1c1c(O)cc(C23CC4CC(CC(C4)C2)C3)cc1O [Compound 51.2, (1R,3R,4R)-3-[4-(1-Adamantyl)-2,6-dihydroxyphenyl]-4-isopropenyl-1-(hydroxymethyl)cyclohexane] | 910 nM | 16 nM |  |
| C=C(C)[C@H]1CCC(COC(C)=O)=C[C@@H]1c1c(O)cc(C2(CCCCCC)SCCS2)cc1O [Compound 3.6, 2-[(1S,6S)-3-(Acetoxymethyl)-6-(1-methylethenyl)-2-cyclohexen-1-yl]-5-(2-hexyl-1,3-dithiolane-2-yl)resorcinol] |  | 97 nM | 326 nM |
| C=C(C=O)[C@@H]1CC[C@@H](CO)C[C@H]1c1c(O)cc(C23CC4CC(CC(C4)C2)C3)cc1O [Compound 53.2, (1R,3R,4R)-3-[4-(1-Adamantyl)-2,6-dihydroxyphenyl]-4-[2′-(propenalyl)]-1-(hydroxymethyl)cyclohexane] | 1400 nM | 20 nM |  |
| C=C(C)[C@H]1CCC(CO)=C[C@@H]1c1c(O)cc(C2(CCCCCN=[N+]=[N-])CCC2)cc1O [Compound 37, 2-[(1S,6S)-3-(Hydroxymethyl)-6-(1-methylethenyl)-2-cyclohexen-1-yl]-5-[(5-azidopentyl)cyclobutyl)resorcinol] | 22 nM | 7.2 nM |  |
| CCCC/C=C\C1(c2cc(O)c([C@@H]3C=C(C)[C@@H]4C[C@H]3C4(C)C)c(O)c2)CCCC1 [Compound 43.5, (−)-2-[(1S,4R,5R)-2,6,6-trimethylbicyclo[3.1.1]hept-2-en-4-yl]-5-[1-(1,2-cis-hexen-1-yl)-cycolpentyl-1-yl]resorcinol] | 45 nM | 29 nM |  |
| C=C(C)[C@@H]1CCC(=COC)C[C@H]1c1c(O)cc(C23CC4CC(CC(C4)C2)C3)cc1O [Compound 49.2, (3R,4R)-3-[4-(1-Adamantyl)-2,6-dihydroxyphenyl]-4-isopropenyl-1-(methoxymethylene)cyclohexane] | 1760 nM | 375 nM |  |
| C=C(C)[C@H]1CCC(=O)C[C@@H]1c1c(O)cc(C(C)(C)CCCCCC)cc1O [Compound 66.2, (3S,4S)-3-[4-(1′,1′-Dimethylheptyl)-2,6-dihydroxyphenyl]-4-isopropenylcyclohexan-1-one] | 30 to 60 nM | 41 nM |  |
| CCCCCc1cc(O)c([C@@H]2C=C(C)[C@@H]3C[C@H]2C3(C)C)c(O)c1 [Compound 43.1, (−)-2-[(1S,4R,5R)-2,6,6-trimethylbicyclo[3.1.1]hept-2-en-4-yl]-5-pentyl-resorcinol, reference compound] | 837 nM | 565 nM |  |
| C=C(C)[C@@H]1CC[C@@H](C(=O)O)C[C@H]1c1c(O)cc(C(C)(C)CCCCCC)cc1O [Compound 58.2, (1R,3R,4R)-3-[4-(1′,1′-Dimethylheptyl)-2,6-dihydroxyphenyl]-4-isopropenyl-1-carboxylylcyclohexane] | > 1000 nM | > 1000 nM |  |
| C=C(C)[C@H]1CCC(COC(C)=O)=C[C@@H]1c1c(O)cc(C23CC4CC(CC(C4)C2)C3)cc1O [Compound 3.9, 2-[(1S,6S)-3-(Acetoxymethyl)-6-(1-methylethenyl)-2-cyclohexen-1-yl]-5-(1-adamantyl)resorcinol] | 185 nM | 135 nM |  |
| C=C(C)[C@H]1CCC(CO)=C[C@@H]1c1c(O)cc(C2(CCCCCBr)CCC2)cc1O [Compound 4.8, 2-[(1S,6S)-3-(Hydroxymethyl)-6-(1-methylethenyl)-2-cyclohexen-1-yl]-5-[(5-bromopentyl)cyclobutyl)resorcinol] | 14 nM | 11 nM |  |

Reference: patent publication US9517989B2, “2-cycloalkyl resorcinol cannabinergic ligands” (priority 2012, dated 2016)
